The test system of assay [1] is BaF3-TEL-EGFR. Kind of assay: Cell growth (Cell Titer-Glo viability), BaF3-TEL-EGFR. The following applies: Mus musculus; BaF3-TEL-EGFR (stably expressing EGFR kinase), 72 hrs. Type of assay: cell-based. An excerpt:
(§1) By testing the effect of the novel kinase inhibitors on the proliferation of cancer cells, the selectivity of the compounds of the present disclosure in inhibiting the proliferation of cancer cells was further assessed. In this example, human non-small cell lung cancer cell NCI-H1975 (expressing EGFR L858R/T790M double mutant gene), human skin squamous carcinoma cell A431 (expressing wild-type EGFR gene), non-small cell lung cancer NCI-H3255 (expressing EGFR L858R mutant gene), non-small cell lung cancer cell NCI-H3122 (expressing ALK gene), human non-small cell lung cancer cell A549 (expressing wild-type EGFR gene), human non-small cell lung cancer cell NCI-H2122 (expressing wild-type EGFR gene), human non-small cell lung cancer cell NCI-H460 (expressing wild-type EGFR gene), human non-small cell lung cancer cell PC-9 (expressing EGFR delE746_A750 mutant gene), Chinese hamster ovary cell CHO (Cricetulus griseus, hamster, Chinese, ovary), Chinese hamster lung cell CHL, human non-small cell lung cancer cell HCC827 (expressing mutant EGFR del19 gene), human lung adenocarcinoma cell HCC4006 (expressing mutant EGFR del19 gene), human non-small cell lung cancer cell NCI-H2228 (expressing wild-type ALK gene), and mouse primary B cell BaF3 were used, and the above cells were all purchased from ATCC (US). In addition, mouse BaF3-TEL-ALK (stably expressing ALK kinase), mouse BaF3-ALK-F1174L (stably expressing mutant ALK F1174L kinase), mouse BaF3-NPM-ALK (stably expressing ALK kinase), mouse BaF3-TEL-EGFR (stably expressing EGFR kinase), mouse BaF3-TEL-EGFR-T790M (stably expressing EGFR T790M mutant kinase), mouse BaF3-FL-EGFR-Del19 (stably expressing EGFR delE746_A750 mutant kinase), mouse BaF3-TEL-EGFR-L858R (stably expressing EGFR L858R mutant kinase), mouse BaF3-FL-EGFR-T790M-L858R (stably expressing EGFR T790M/L858R mutant kinase), mouse BaF3-TEL-INSR (stably expressing INSR protein), mouse BaF3-TEL-IGF1R (stably expressing IGF1R Protein), mouse BaF3-EML4-ALK (stably expressing EML4-ALK Protein), mouse BaF3-TEL-JAK3 (stably expressing JAK3 kinase protein), mouse BaF3-TEL-CSF1R (stably expressing CSF1R protein), and mouse BaF3-TEL-ALK-F1196M (stably expressing ALK F1196M mutant kinase) were also used in this example. The above cell lines were all established by our laboratory via the following process: kinase proteins or protein domain sequences of human ALK, ALK F1174L, EGFR, EGFR T790M, EGFR delE746_A750, EGFR L858, EGFR T790M/L858R, INSR, IGF1R, EML4-ALK, JAK3, CSF1R, ALK F1196M were amplified respectively by PCR, and were respectively inserted into MSCV-Puro vector (Clontech) with N-terminal TEL fragments and/or NPM fragments and/or TPR fragments; the resultants were stably transfected into mouse BaF3 cells by the means of retrovirus, and the IL-3 growth factors were removed, and eventually the ALK, ALK F1174L, EGFR, EGFR T790M, EGFR delE746_A750, EGFR L858, EGFR T790M/L858R, INSR, IGF1R, EML4-ALK, JAK3, CSF1R, ALK F1196M-transferred protein dependent cell lines were obtained.
(§2) The number of viable cells was determined quantitatively by a microplate reader using Cell Titer-Glo® (Promega, US) chemiluminescence cell viability assay kit.
In general terms: In ATP-based viability assays light output follows the ATP content of the culture.

The subject of assay [2] is PC-9. As to the kind of experiment: Growth of cancer cells (Cell Titer-Glo viability), PC-9. The conditions noted are these: Homo sapiens; PC-9 (EGFR delE746_A750 mutant), 72 hrs. Type of assay: cell-based.
Source text: as §1, §2

In assay [3] the test system is A431. Kind of assay: Growth of cancer cells (Cell Titer-Glo viability), A431. The following applies: Homo sapiens, A-431; A431 (wild-type EGFR), 72 hrs; read-out: GI50. Type of assay: cell-based.
Source text: as §1, §2

The test system of assay [4] is CHO. As to the kind of experiment: Cell growth (Cell Titer-Glo viability), CHO. Type of assay: cell-based, Chinese hamster. The conditions noted are these: Cricetulus griseus; CHO Chinese hamster ovary cell, 72 hrs; read-out: GI50.
Source text: as §1, §2

Assay [5] concerns A549. Kind of assay: Growth of cancer cells (Cell Titer-Glo viability), A549. Type of assay: cell-based. The conditions noted are these: Homo sapiens; A549 (wild-type EGFR), 72 hrs.
Source text: as §1, §2

In assay [6] the test system is CHL. As to the kind of experiment: Cell growth (Cell Titer-Glo viability), CHL. The conditions noted are these: Cricetulus griseus; CHL Chinese hamster lung cell, 72 hrs; read-out: GI50. Type of assay: cell-based, Chinese hamster.
Source text: as §1, §2

In assay [7] the test system is BaF3-ALK-F1174L. As to the kind of experiment: Cell growth (Cell Titer-Glo viability), BaF3-ALK-F1174L. Type of assay: cell-based. The conditions noted are these: Mus musculus; BaF3-ALK-F1174L (mutant ALK F1174L kinase), 72 hrs.
Source text: as §1, §2

Assay [8] concerns BaF3-FL-EGFR-Del19. As to the kind of experiment: Cell growth (Cell Titer-Glo viability), BaF3-FL-EGFR-Del19. Type of assay: cell-based. The following applies: Mus musculus; BaF3-FL-EGFR-Del19 (EGFR delE746_A750 mutant kinase), 72 hrs.
Source text: as §1, §2

The subject of assay [9] is NCI-H3122. As to the kind of experiment: Growth of cancer cells (Cell Titer-Glo viability), NCI-H3122. Type of assay: cell-based. The following applies: Homo sapiens; NCI-H3122 (expressing ALK gene), 72 hrs; read-out: GI50.
Source text: as §1, §2

For assay [10], the system named is BaF3-TEL-EGFR-T790M. Kind of assay: Cell growth (Cell Titer-Glo viability), BaF3-TEL-EGFR-T790M. Type of assay: cell-based. The conditions noted are these: Mus musculus; BaF3-TEL-EGFR-T790M (EGFR T790M mutant kinase), 72 hrs.
Source text: as §1, §2

Assay [11] relates to NCI-H2228. As to the kind of experiment: Growth of cancer cells (Cell Titer-Glo viability), NCI-H2228. Type of assay: cell-based. The following applies: Homo sapiens; NCI-H2228 (wild-type ALK), 72 hrs.
Source text: as §1, §2

In assay [12] the test system is HCC827. Kind of assay: Growth of cancer cells (Cell Titer-Glo viability), HCC827. Type of assay: cell-based. The following applies: Homo sapiens; HCC827 (mutant EGFR del19), 72 hrs.
Source text: as §1, §2

Assay [13] deals with NCI-H2122. Kind of assay: Growth of cancer cells (Cell Titer-Glo viability), NCI-H2122. Type of assay: cell-based. The following applies: Homo sapiens; NCI-H2122 (wild-type EGFR), 72 hrs.
Source text: as §1, §2

Assay [14] concerns BaF3. Kind of assay: Cell growth (Cell Titer-Glo viability), BaF3. Type of assay: cell-based. The conditions noted are these: BaF3 mouse primary B cell, 72 hrs.
Source text: as §1, §2

For assay [15], the system named is NCI-H1975. Kind of assay: Growth of cancer cells (Cell Titer-Glo viability), NCI-H1975. Type of assay: cell-based. The following applies: Homo sapiens; NCI-H1975 (EGFR L858R/T790M double mutant), 72 hrs.
Source text: as §1, §2

In assay [16] the test system is BaF3-TEL-ALK. Kind of assay: Cell growth (Cell Titer-Glo viability), BaF3-TEL-ALK. Type of assay: cell-based. The following applies: Mus musculus; BaF3-TEL-ALK (stably expressing ALK kinase), 72 hrs.
Source text: as §1, §2

With `C=CC(=O)Nc1cc(Nc2ncc(Cl)c(Nc3ccccc3S(=O)(=O)C(C)C)n2)c(OC)cc1N1CCN(C)CC1` [Compound 2, N-(5-(5-chloro-4-(2-(isopropylsulfonyl)phenylamino)pyrimidin-2-ylamino)-4-methoxy-2-(4-methylpiperazin-1-yl)phenyl)acrylamide], the GI50 in assay [1] was found to be 450 nM; in assay [2] it was 5 nM; in [3], 250 nM; in assay [4], 500 nM; in assay [5], 870 nM; in assay [6] it was 2000 nM. Further, the GI50 is 670 nM in [7]; under 0.3 nM in assay [8]; 33 nM in assay [9]; 12 nM in assay [10]; 250 nM in assay [11]; 10 nM in [12]. Moreover, the concentration for 50% growth inhibition (GI50) in [13] is 3600 nM; in assay [14], 1600 nM; in assay [15], 43 nM; in assay [16], over 10000 nM.

On to `C=CC(=O)Nc1cc(Nc2ncc(Cl)c(Nc3ccccc3S(=O)(=O)C(C)C)n2)c(OC)cc1N1CCNCC1` [Compound 4, N-(5-(5-chloro-4-(2-(isopropylsulfonyl)phenylamino)pyrimidin-2-ylamino)-4-methoxy-2-(piperazin-1-yl)phenyl) acrylamide], for which the GI50 in [2] was 45 nM; in assay [3] it was 430 nM; in assay [4], over 10000 nM; in assay [5], 2200 nM; in assay [6], 4900 nM; in [7], 1500 nM. Besides, the GI50 in [8] was determined as 15 nM; in [9] it was 7 nM; in assay [10] it was 62 nM; in [11], 7.4 nM; in assay [12], 16 nM; in assay [13], 1300 nM. For the same compound, the concentration for 50% growth inhibition (GI50) was found to be 2000 nM in assay [14], 24 nM in assay [15] and 8 nM in [16].

With `C=CC(=O)Nc1cc(Nc2ncc(Cl)c(Nc3ccccc3S(=O)(=O)C(C)C)n2)c(OC)cc1N1CCN(CCF)CC1` [Compound 9, N-(5-(5-chloro-4-(2-(isopropylsulfonyl)phenylamino)pyrimidin-2-ylamino)-2-(4-(2-fluoroethyl)piperazin-1-yl)-4-methoxyphenyl)acrylamide], the 50% growth inhibitory concentration (GI50) is 650 nM in assay [1]; 43 nM in assay [2]; 320 nM in [3]; 1000 nM in assay [4]; 1300 nM in assay [5]; 4300 nM in [6]. The 50% growth inhibitory concentration (GI50) in assay [7] was 540 nM; in assay [8], under 0.3 nM; in assay [9], 42 nM; in assay [10], 47 nM; in assay [11] it was 260 nM; in [12], 35 nM. The concentration for 50% growth inhibition (GI50) in assay [13] is 680 nM; in [14], 2900 nM; in assay [15] it was 59 nM; in assay [16], over 10000 nM.

With `C=CC(=O)Nc1cc(Nc2ncc(Cl)c(Nc3cccc(C(F)(F)F)c3)n2)c(OC)cc1N1CCN(C)CC1` [Compound 18, N-(5-(5-chloro-4-(3-(trifluoromethyl)phenylamino)pyrimidin-2-ylamino)-4-methoxy-2-(4-methylpiperazin-1-yl)phenyl)acrylamide], the GI50 in assay [2] was 160 nM; in assay [3] it was 4600 nM; in [4] it was 5400 nM; in assay [5], over 10000 nM; in assay [6], 4200 nM; in [7] it was 1700 nM. For the same compound, the 50% growth inhibitory concentration (GI50) in assay [8] is under 0.3 nM; in assay [9], 770 nM; in [10] it was 80 nM; in assay [11], 170 nM; in assay [12] it was 46 nM; in assay [13] it was 3400 nM. For the same compound, the GI50 in assay [14] is 4300 nM; in [15], 260 nM; in assay [16], 180 nM.

Regarding `C=CC(=O)Nc1cc(Nc2ncc(Cl)c(Nc3ccc(F)c(Cl)c3)n2)c(OC)cc1N1CCN(C)CC1` [Compound 21, N-(5-(5-chloro-4-(3-chloro-4-fluorophenylamino)pyrimidin-2-ylamino)-4-methoxy-2-(4-methylpiperazin-1-yl)phenyl)acrylamide], the GI50 in assay [2] was 31 nM; in assay [3], 1100 nM; in assay [4], 6200 nM; in assay [5], over 10000 nM; in assay [6] it was over 10000 nM; in [7] it was 740 nM. Further, the 50% growth inhibitory concentration (GI50) in [8] was under 0.3 nM; in assay [9], 300 nM; in assay [10] it was 35 nM; in assay [11] it was 78 nM; in [12], 28 nM; in [13], 1400 nM. For the same compound, the 50% growth inhibitory concentration (GI50) came out at 6800 nM in assay [14], 100 nM in [15] and 43 nM in assay [16].

As to `C=CC(=O)Nc1cc(Nc2ncc(Cl)c(Nc3ccccc3S(=O)(=O)N(C)C)n2)c(OC)cc1N1CCN(C)CC1` [Compound 32, N-(5-(5-chloro-4-(2-(N,N-dimethylsulfamido)phenylamino)pyrimidin-2-ylamino)-4-methoxy-2-(4-methylpiperazin-1-yl)phenyl)acrylamide], the GI50 in assay [1] was 500 nM; in assay [2], under 3 nM; in assay [3], 220 nM; in assay [4], 340 nM; in assay [5], 600 nM; in [6], 1600 nM. The 50% growth inhibitory concentration (GI50) in assay [7] is 530 nM; in [8], under 0.3 nM; in [9], 11 nM; in [10] it was 10 nM; in assay [11], 490 nM; in assay [12], under 3 nM. Also, the concentration for 50% growth inhibition (GI50) was 370 nM in assay [13], 1100 nM in assay [14], 31 nM in assay [15] and over 10000 nM in [16].

One may read the GI50 as the concentration at which growth is held to half of that of the control.

For the origin of these results see patent US10350210B2, “EGFR and ALK dual inhibitor” (PRECEDO PHARMACEUTICALS CO., LTD, priority 2015, dated 2019).
